Data from publication PMC12412324, “Design, synthesis, and evaluation of novel pinane-based thiazolidione derivatives with anti-glioblastoma activity” (Journal of Enzyme Inhibition and Medicinal Chemistry, 2025).
Several values for one entry are separate records, joined by “and”; a condition that tells them apart may be missing. Identical values can stand only once.

What was measured:
U251 = experiment: CCK-8 cell viability assay, U251; format: cell-based; settings: Homo sapiens, U-251, 72 h, CCK-8, 72 h, mean ± SD of three independent experiments
Protocol: (§1) The U87MG cell line (catalogue iCell-h224) and U251MG cell line (catalogue iCell-h219) were purchased from iCell Bioscience Inc (Shanghai) cell bank. T98G cell line was obtained from Yining Zhang’s group. All cells were cultured in DMEM supplemented with 10% (v/v) FBS and penicillin-streptomycin in a humidified incubator at 37 °C under 5% CO2. The different compounds were dissolved in DMSO at the concentration of 10 mM and diluted in serum-free medium. The GBM cells were seeded into 96-well microplates at the density of 6000 cells/well and incubated for 24 h. Fresh media supplemented with different concentrations of the compounds were added, and the cells were cultured for 72 h. The CCK-8 reagent (TargetMol, C0005) was added to each well and the cells were incubated for 4 h at 37 °C. […] the absorbance was measured at […] using a microplate reader (Genios Tecan). An untreated control group was included and its viability was set as 100%. IC50 value of the two probes was calculated using GraphPad Prism 5.0.

T98G = experiment: CCK-8 cell viability assay, T98G; format: cell-based; settings: Homo sapiens, T98G, 72 h, CCK-8, 72 h, mean ± SD of three independent experiments
Protocol: as §1

U87 = experiment: CCK-8 cell viability assay, U87; format: cell-based; settings: Homo sapiens, U-87 MG, 72 h, CCK-8, 72 h, mean ± SD of three independent experiments
Protocol: as §1

LO2 = experiment: CCK-8 cytotoxicity, normal human cell line LO2; format: cell-based; settings: L02, mean ± SD of three independent experiments
[1] = test system: GBM cell lines (U87, T98G, and U251); experiment: CCK-8 anti-proliferation, three GBM cell lines taken together; format: cell-based; settings: read-out: IC50 values against all three GBM cell lines
Protocol: as §1

U251 cells [2] = experiment: Annexin V-FITC/PI apoptosis flow cytometry; format: cell-based; settings: U251, C5 10 μM, 48 h
Protocol: (§2) U251 (1 × 10^5 cells/well) in logarithmic growth phase were transferred into 6-well microplates and cultured for 12 h. […] Annexin V-FITC/PI staining kit (Yeasen, Shanghai, China) was used to detect cell apoptosis. The cell cycle distribution was analysed by staining with a cell cycle analysis kit. Intracellular ROS levels were also detected using a ROS assay kit (Yeasen, Shanghai, China). All assays were performed as per the manufacturer’s instructions, and the stained cells were analysed by flow cytometry (Beckman Coulter, Miami, FL) to quantify apoptosis rates, cell cycle distribution, and ROS levels as appropriate.

U251 cells [3] = experiment: Cell cycle distribution by flow cytometry; format: cell-based; settings: U251, C5 2.5, 5, 10 μM, 48 h
Protocol: as §2

CDK2 [4] = target: T1, CDK2 (Homo sapiens, UniProt P24941); experiment: Cellular thermal shift assay (CETSA); format: binding; settings: U251, C5 50 and 100 µM, 40–70 °C, compared to control group
T1 construct: endogenous in cells; host or cells: U251 cells (lysate)
Protocol: U251 cells in logarithmic growth were harvested and lysed with protease inhibitors and phosphorylase inhibitors, followed by ultrasonic disruption and ice extraction for 1 h. After that, the lysate was divided into three parts evenly and incubated with DMSO, 50 µM of C5, and 100 µM of C5 for 1 h at room temperature. Subsequently, samples were heated in the PCR machine for 10 min in indicated temperature gradients (40–70 °C), respectively. Finally, samples were centrifuged at 14,000 × g for 30 min at 4 °C to remove aggregates, and the resulting supernatant was analysed with western blotting.

CDK2 [5] = target: T1, CDK2; experiment: Drug affinity responsive target stability (DARTS) assay; format: binding; settings: U251 lysate, C5 50 and 100 μM, pronase 30 min, versus DMSO
Protocol: U251 cells were plated in 10 cm dishes. After overnight, the cells were washed by precooled PBS, and lysed by NP-40 lysis buffer for 30 min. Next, lysates were centrifuged at 13000 rpm for 15 min at 4 °C, and protein concentration was determined using a BCA protein assay kit (Solarbio, PC0020). The supernatants were divided into four 50 μL aliquots and incubated with DMSO or compound C5 (50 and100μM) for 30 min at room temperature. Then, the 5 μL of Pronase (The method of preparing the stock solution is 1 μg of Pronase in 200 μg of lysate, the effect concentration which is diluted by ultrapure water to 200X/400X/600X), and the reaction was stopped by 5× loading buffer. Protein samples were boiled and analysed by using Western blot.

U251 cells [6] = experiment: Transwell invasion experiment (Matrigel); format: cell-based; settings: U251, C5 2.5, 5, 10 µM, 24 h, dose-dependent
Protocol: Matrigel-coated transwell chambers (24-well; 8-μm pore size, Corning, New York, NY, USA) were used to evaluate the invasion capability of GBM cells. The U251 cells incubated with different doses of C5 (0, 2.5, 5, and 10 μM) for 24 h were seeded on Matrigel-coated transwell chambers at the density of 2 × 10^4/well in a serum-free medium. After culturing for 24 h, the cells that invaded through Matrigel to the lower surface of the membrane were fixed with […] and stained with 0.1% crystal violet. The cells were counted under an inverted microscope in at least 5 random fields per well.

U251 cells [7] = experiment: Intracellular ROS by flow cytometry (DCFH-DA); format: cell-based; settings: U251, 5 μM C5, DCFH-DA
Protocol: U251 (1 × 10^5 cells/well) in logarithmic growth phase were transferred into 6-well microplates and cultured for 12 h. Therefore, U251 cells were treated with C5 (0, 2.5, 5, and 10 μM) for 24 h. Annexin V-FITC/PI staining kit (Yeasen, Shanghai, China) was used to detect cell apoptosis. The cell cycle distribution was analysed by staining with a cell cycle analysis kit. Intracellular ROS levels were also detected using a ROS assay kit (Yeasen, Shanghai, China). All assays were performed as per the manufacturer’s instructions, and the stained cells were analysed by flow cytometry (Beckman Coulter, Miami, FL) to quantify apoptosis rates, cell cycle distribution, and ROS levels as appropriate.

U251 cells [8] = experiment: Mitochondrial membrane potential (JC-1); format: cell-based; settings: U251, C5 2.5, 5, 10 μM, 24 h
Protocol: U251 cells were seeded in 6-well microplates at the density of 1.5 × 10^5 cells/well and cultured overnight. Fresh medium containing different doses of C5 (0, 2.5, 5, and 10 μM) was added, and the cells were cultured for 24 h. The cells were stained using the JC-1 kit (Sigma-Aldrich, USA) according to the manufacturer’s instructions and observed by fluorescence microscopy. The changes in the ratio of the red and green fluorescence intensities were calculated to evaluate MMP.

[9] = test system: apoptosis-related and autophagy-related proteins in U251 cells; experiment: Western blotting of apoptosis-related and autophagy-related proteins; format: cell-based; settings: immunoblot
Protocol: The protein content in the lysates was measured using a BCA protein assay kit, and 20 μg protein per sample was separated by SDS-PAGE and transferred to PVDF membranes (Merck Millipore, Burlington, MA, USA). After blocking with 5% skim milk in Tris buffered saline-Tween (TBS-T) at room temperature for 2h, the blots were incubated overnight with the following primary antibodies at 4 °C: mouse anti-GAPDH (ab8245, 1:10000), rabbit anti-Bax (ab32503, 1:5000), anti-Bcl-2 (ab32124, 1:1000), anti-caspase 3 (ab32351, 1:5000), anti-cleaved caspase 3 (ab32042, 1:500), anti-cleaved PARP-1 (ab32561, 1:1000), anti-LC3B (ab192890, 1:2000), anti-p62 (ab109012, 1:10000), anti-PARP-1 (ab32138, 1:10000). Following three washes with TBS-T, the membranes were incubated with corresponding horseradish peroxidase-conjugated secondary antibodies (1:10000) at room temperature for 90 min, and washed thrice with TBS-T. The bands were visualised using the Minichem@610 Chemiluminescence imager (SAGCEREATION, Beijing) on the chemiluminescence channel.

[10] = test system: U251 multicellular tumour spheroids; experiment: 3D spheroid assay (MCTSs, calcein-AM/PI); format: cell-based; settings: C5 24 h, dose-dependent
Protocol: Malignant glioblastoma tumour cells U251 were seeded in cell-repellent 96-well U-bottom plates (Sbio™), and cultured for 72 h to allow spheroid formation. […] Spheroids were stained with PI and Calcein-AM, and observed under a fluorescence microscope.

[11] = U251, C5 treatment 24 h, concentration-dependent

Which results are given for CN1C(=O)C(=Cc2ccc(O)cc2)SC1=NN=CC1=CCC2CC1C2(C)C (stereo not shown) [C5, 2-(((6,6-Dimethylbicyclo[3.1.1]hept-2-en-2-yl)methylene)hydrazineylidene)-5–(4-hydroxybenzylidene)-3-methylthiazolidin-4-one]?
IC50 (U251): 3.12 ± 0.45 µM; IC50 (T98G): 4.25 ± 0.38 µM; IC50 (U87): 3.98 ± 0.34 µM; IC50 (LO2): 43.2 ± 0.21 µM; IC50 [1]: 3.12 to 4.25 µM and < 5 µM; apoptosis rate (U251 cells [2]): 48.56%; cell cycle distribution (U251 cells [3]): decrease in the G2/M population, with a concomitant increase in the S phase population; thermal stability of CDK2 (CETSA) (CDK2 [4]): substantially increased; CDK2 stability to pronase digestion (DARTS) (CDK2 [5]): enhanced stability; number of viable cells that invaded through the Matrigel (U251 cells [6]): significantly decreased; intracellular ROS levels (U251 cells [7]): significantly increased; mitochondrial membrane potential, JC-1 fluorescence (U251 cells [8]): dose-dependent decrease in red fluorescence; Bax expression ([9]; U251, C5 treatment 24 h): upregulation; Bcl-2 expression ([9]; U251, C5 treatment 24 h): dose-dependent downregulation; PARP cleavage [9, 11]: enhanced; caspase-3 activation [9, 11]: enhanced; LC3B-II expression ([9]; U251, C5 treatment): significantly enhanced; P62 expression ([9]; U251, C5 treatment): significantly enhanced; viability of U251 cells in a 3D model [10]: decreased
